From ChEMBL document CHEMBL3621198, “Probing cytochrome P450-mediated activation with a truncated azinomycin analogue” (Medchemcomm, 2015) come the findings set out here.

Calls of active or inactive are those of the source. No cut-off for these calls is given here. Some results are limits rather than exact numbers.

In series [1] the test system is CHO. Kind of series: Induction of DNA damage in wild type CHO cells assessed as DNA single strand breaks at 50 uM after 1 hr by alkaline comet assay in absence of CYP3A4 expressed in bactosomes. Type of series: functional, cell-based. The settings on record: Cricetulus griseus.
The subject of series [2] is CHO. The series can be described thus: Induction of DNA damage in wild type CHO cells assessed as DNA interstrand cross-links by measuring decrease in mean tail moment at 50 uM after 1 hr by alkaline comet assay in presence of CYP3A4 expressed in bactosomes. Type of series: functional, cell-based. The settings on record: Cricetulus griseus.
In series [3] the test system is CHO. The series can be described thus: Cytotoxicity against wild type CHO cells assessed as growth inhibition preincubated with CYP3A4 expressed in bactosomes for 1 hr followed by cell addition measured after 96 hrs by MTT assay. The format is functional, cell-based. The settings on record: Cricetulus griseus.
For series [4], the system named is CHO. Kind of series: Potentiation factor, ratio of IC50 for wild type CHO cells in absence of CYP1A1 expressed in bactosomes to IC50 for wild type CHO cells in presence of CYP1A1 expressed in bactosomes. The format is functional, Cricetulus griseus.
In series [5] the test system is CHO. Kind of series: Potentiation factor, ratio of IC50 for wild type CHO cells in absence of CYP3A4 expressed in bactosomes to IC50 for wild type CHO cells in presence of CYP3A4 expressed in bactosomes. The format is functional, Cricetulus griseus.
In the next series the target is T1, Cytochrome P450 1A1 (Homo sapiens, UniProt P04798).
T1 sequence (P04798 whole entry): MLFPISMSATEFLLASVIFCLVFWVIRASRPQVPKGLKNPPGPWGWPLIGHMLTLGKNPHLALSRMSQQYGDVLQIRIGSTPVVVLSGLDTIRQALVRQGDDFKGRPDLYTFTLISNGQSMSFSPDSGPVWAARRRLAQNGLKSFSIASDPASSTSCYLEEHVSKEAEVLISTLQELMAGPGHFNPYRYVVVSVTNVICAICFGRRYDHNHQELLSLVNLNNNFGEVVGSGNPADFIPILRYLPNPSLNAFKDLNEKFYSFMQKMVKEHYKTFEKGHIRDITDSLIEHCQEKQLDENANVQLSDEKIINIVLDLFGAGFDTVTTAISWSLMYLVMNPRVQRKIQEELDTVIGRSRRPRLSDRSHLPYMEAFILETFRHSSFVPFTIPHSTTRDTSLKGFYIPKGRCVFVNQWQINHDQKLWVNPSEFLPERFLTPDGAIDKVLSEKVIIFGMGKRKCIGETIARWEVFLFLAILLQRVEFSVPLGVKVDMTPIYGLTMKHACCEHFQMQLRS
Kind of series: Drug metabolism assessed as CYP1A1 (unknown origin) expressed in bactosomes-mediated (1R)-2-amino-1-(2-methyloxiran-2-yl)-2-oxoethyl 3-methoxy-5-methyl-1-naphthoate formation measured for 180 mins by LC/MS/MS analysis. The format is ADME. The settings on record: recombinant enzyme, 3 h.

Series [6] has as its system CHO. The series can be described thus: Cytotoxicity against wild type CHO cells assessed as growth inhibition after 96 hrs by MTT assay. Type of series: functional, cell-based. The settings on record: Cricetulus griseus.
For series [7], the system named is CHO. The series can be described thus: Cytotoxicity against CHO cells transfected with CYP1A1 assessed as growth inhibition after 96 hrs by MTT assay. Type of series: functional, cell-based. The settings on record: Cricetulus griseus.
The test system of series [8] is CHO. Kind of series: Cytotoxicity against wild type CHO cells assessed as growth inhibition preincubated with CYP1A1 expressed in bactosomes for 1 hr followed by cell addition measured after 96 hrs by MTT assay. Type of series: functional, cell-based. The settings on record: Cricetulus griseus.
The test system of series [9] is CHO. The series can be described thus: Cytotoxicity against wild type CHO cells assessed as growth inhibition preincubated with CYP1A2 expressed in bactosomes for 1 hr followed by cell addition measured after 96 hrs by MTT assay. Type of series: functional, cell-based. The settings on record: Cricetulus griseus.
Series [10] deals with CHO. Kind of series: Cytotoxicity against wild type CHO cells assessed as growth inhibition preincubated with CYP1B1 expressed in bactosomes for 1 hr followed by cell addition measured after 96 hrs by MTT assay. The format is functional, cell-based. The settings on record: Cricetulus griseus.
The subject of series [11] is CHO. Kind of series: Cytotoxicity against wild type CHO cells assessed as growth inhibition preincubated with CYP2D6 expressed in bactosomes for 1 hr followed by cell addition measured after 96 hrs by MTT assay. Type of series: functional, cell-based. The settings on record: Cricetulus griseus.
The test system of series [12] is CHO. Kind of series: Potentiation factor, ratio of IC50 for wild type CHO cells in absence of CYP1A2 expressed in bactosomes to IC50 for wild type CHO cells in presence of CYP1A2 expressed in bactosomes. Type of series: functional, Cricetulus griseus.
Series [13] has as its system CHO. The series can be described thus: Potentiation factor, ratio of IC50 for wild type CHO cells in absence of CYP1B1 expressed in bactosomes to IC50 for wild type CHO cells in presence of CYP1B1 expressed in bactosomes. Type of series: functional, Cricetulus griseus.
Series [14] deals with CHO. Kind of series: Potentiation factor, ratio of IC50 for wild type CHO cells in absence of CYP2D6 expressed in bactosomes to IC50 for wild type CHO cells in presence of CYP2D6 expressed in bactosomes. The format is functional, Cricetulus griseus.
Series [15] has as its system CHO. The series can be described thus: Induction of DNA damage in wild type CHO cells assessed as DNA single strand breaks at 50 uM after 1 hr by alkaline comet assay in presence of CYP3A4 expressed in bactosomes. The settings on record: Cricetulus griseus. The format is functional, cell-based.
For series [16], the system named is CHO. The series can be described thus: Induction of DNA damage in wild type CHO cells assessed as DNA double strand breaks by measuring increase in mean tail moment at 50 uM after 1 hr by neutral comet assay in absence of CYP3A4 expressed in bactosomes. Type of series: functional, cell-based. The settings on record: Cricetulus griseus.
The test system of series [17] is CHO. Kind of series: Induction of DNA damage in wild type CHO cells assessed as DNA double strand breaks by measuring increase in mean tail moment at 50 uM after 1 hr by neutral comet assay in presence of CYP3A4 expressed in bactosomes. Type of series: functional, cell-based. The settings on record: Cricetulus griseus.
For series [18], the system named is CHO. Kind of series: Induction of DNA damage in wild type CHO cells assessed as DNA interstrand cross-links by measuring decrease in mean tail moment at 50 uM after 1 hr by alkaline comet assay in absence of CYP3A4 bactosomes. The format is functional, cell-based. The settings on record: Cricetulus griseus.
The subject of a further series is SW480. The series can be described thus: Cytotoxicity against human SW480 cells transfected with CYP2W1 assessed as growth inhibition at 0.001 to 100 uM after 96 hrs by MTT assay. The format is functional, cell-based.
Series [19] has as its system SGC-7901. The series can be described thus: Cytotoxicity against human SGC7901 cells expressing CYP1A1 mRNA assessed as growth inhibition after 96 hrs by MTT assay. The format is functional, cell-based.
Series [20] has as its system SGC-7901. The series can be described thus: Cytotoxicity against human SGC7901 cells expressing CYP3A4 mRNA assessed as growth inhibition after 96 hrs by MTT assay. The format is functional, cell-based.
In series [21] the test system is MKN-45. The series can be described thus: Cytotoxicity against human MKN45 cells expressing CYP1A1 mRNA assessed as growth inhibition after 96 hrs by MTT assay. Type of series: functional, cell-based.
The subject of series [22] is MKN-45. Kind of series: Cytotoxicity against human MKN45 cells expressing CYP3A4 mRNA assessed as growth inhibition after 96 hrs by MTT assay. The format is functional, cell-based.
For series [23], the system named is SGC-7901. Kind of series: Cytotoxicity against human SGC7901 cells expressing CYP1A1 protein assessed as growth inhibition after 96 hrs by MTT assay. Type of series: functional, cell-based.
For series [24], the system named is SGC-7901. Kind of series: Cytotoxicity against human SGC7901 cells expressing CYP3A4 protein assessed as growth inhibition after 96 hrs by MTT assay. The format is functional, cell-based.
Series [25] relates to MKN-45. Kind of series: Cytotoxicity against human MKN45 cells expressing CYP1A1 protein assessed as growth inhibition after 96 hrs by MTT assay. Type of series: functional, cell-based.
Series [26] relates to MKN-45. The series can be described thus: Cytotoxicity against human MKN45 cells expressing CYP3A4 protein assessed as growth inhibition after 96 hrs by MTT assay. Type of series: functional, cell-based.
Another series addresses Cytochrome P450 3A4 (Homo sapiens, UniProt P08684). The series can be described thus: Drug metabolism assessed as CYP3A4 (unknown origin) expressed in bactosomes-mediated (1S)-2-amino-1-(2-methyloxiran-2-yl)-2-oxoethyl 3-methoxy-5-methyl-1-naphthoate formation measured for 180 mins by LC/MS/MS analysis. The format is ADME. The settings on record: recombinant enzyme, 3 h.

The target in the next series is T2, Cytochrome P450 1B1 (Homo sapiens, UniProt Q16678).
T2 sequence (Q16678 whole entry): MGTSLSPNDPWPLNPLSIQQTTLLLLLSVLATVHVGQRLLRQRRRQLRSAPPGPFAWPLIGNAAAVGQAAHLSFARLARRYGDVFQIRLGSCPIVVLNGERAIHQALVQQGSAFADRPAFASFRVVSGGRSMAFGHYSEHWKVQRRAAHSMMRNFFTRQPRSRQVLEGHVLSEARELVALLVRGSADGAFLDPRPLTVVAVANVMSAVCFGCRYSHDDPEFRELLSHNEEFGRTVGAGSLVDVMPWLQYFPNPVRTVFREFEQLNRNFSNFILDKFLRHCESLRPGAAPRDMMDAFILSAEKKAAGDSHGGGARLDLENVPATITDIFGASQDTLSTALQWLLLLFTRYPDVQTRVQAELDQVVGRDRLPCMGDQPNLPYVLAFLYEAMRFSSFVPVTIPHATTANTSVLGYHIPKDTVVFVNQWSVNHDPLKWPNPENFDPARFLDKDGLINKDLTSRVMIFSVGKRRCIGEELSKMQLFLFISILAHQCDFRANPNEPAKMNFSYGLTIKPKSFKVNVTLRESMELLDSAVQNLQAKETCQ
Kind of series: Drug metabolism assessed as CYP1B1 (unknown origin) expressed in bactosomes-mediated (1R)-2-amino-1-(2-methyloxiran-2-yl)-2-oxoethyl 3-methoxy-5-methyl-1-naphthoate/(1S)-2-amino-1-(2-methyloxiran-2-yl)-2-oxoethyl 3-methoxy-5-methyl-1-naphthoate formation measured for 180 mins by LC/MS/MS analysis. The format is ADME. The settings on record: recombinant enzyme, 3 h.

Cytochrome P450 3A4, sequence (P08684 whole entry): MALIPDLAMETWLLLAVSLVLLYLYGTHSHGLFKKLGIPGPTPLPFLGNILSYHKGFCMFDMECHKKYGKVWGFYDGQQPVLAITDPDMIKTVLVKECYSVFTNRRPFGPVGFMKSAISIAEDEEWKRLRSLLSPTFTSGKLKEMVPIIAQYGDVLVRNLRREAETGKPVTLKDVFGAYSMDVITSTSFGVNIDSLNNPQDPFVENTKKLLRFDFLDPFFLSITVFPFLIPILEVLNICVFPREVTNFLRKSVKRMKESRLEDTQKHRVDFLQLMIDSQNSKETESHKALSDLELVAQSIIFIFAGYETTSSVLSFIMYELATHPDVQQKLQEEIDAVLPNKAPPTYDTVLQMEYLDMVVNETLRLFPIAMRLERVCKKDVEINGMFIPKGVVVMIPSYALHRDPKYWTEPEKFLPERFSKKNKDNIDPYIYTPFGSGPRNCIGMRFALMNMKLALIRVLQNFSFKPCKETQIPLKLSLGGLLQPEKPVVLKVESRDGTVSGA

`C=C(C)[C@@H](OC(=O)c1cc(OC)cc2c(C)cccc12)C(N)=O`: the outcome in the series with CHO [1], in the series on CHO [16], in the series on CHO [17] and with CHO [18] was inactive. For the same compound, the outcome in the series with CHO [2] and with CHO [15] was Active. The IC50 was 3.34 µM in the series on CHO [3]; 81.6 µM in the series with CHO [6]; 6.3 µM in the series on CHO [7]; 14.2 µM in the series on CHO [8]; 20.3 µM with CHO [9]; 11.8 µM in the series with CHO [10]. Besides, in the series on CHO [11], the IC50 was determined as 28.3 µM. Moreover, the “Ratio IC50” value in the series with CHO [4] is listed as 5.8; in the series with CHO [5] it was 24.4; with CHO [12], 4; with CHO [13], 7; with CHO [14] it was 2.9. Further, the Drug metabolism entry at Cytochrome P450 1A1, on Cytochrome P450 3A4 and at Cytochrome P450 1B1 was “metabolite_detected” each time. Further, the “growth inhibition (GI)” value in the series on SW480 was “inactive”. Also, the “growth inhibition (GI)” value in the series with SGC-7901 [19], in the series on SGC-7901 [20], with MKN-45 [21], in the series with MKN-45 [22], with SGC-7901 [23] and in the series with SGC-7901 [24] was “Dose-dependent effect” each time. For the same compound, the “growth inhibition (GI)” value with MKN-45 [25] and in the series on MKN-45 [26] was “Dose-dependent effect” throughout.

For `CC1([C@@H](OC(=O)c2ccc(F)c3ccccc23)C(N)=O)CO1` (some centres undefined), the figures for the IC50 in the series on CHO [6] and with CHO [7] were 7 µM and 2 µM, respectively.

As for `C=C(C)[C@@H](OC(=O)c1ccc(F)c2ccccc12)C(N)=O`, the IC50 in the series with CHO [6] and in the series on CHO [7] was greater than 100 µM throughout.

On to `Cc1ccc(C(=O)O[C@@H](C(N)=O)C2(C)CO2)c2ccccc12` (some centres undefined), for which the IC50 in the series on CHO [6] worked out at 5 µM; in the series on CHO [7], 9 µM.

As for `C=C(C)[C@@H](OC(=O)c1ccc(C)c2ccccc12)C(N)=O`, the IC50 in the series with CHO [6] and in the series on CHO [7] was greater than 100 µM each time.

Take `CC1([C@@H](OC(=O)c2cccc3ccccc23)C(N)=O)CO1` (some centres undefined): the IC50 in the series with CHO [6] came out at 10 µM; with CHO [7] it was 9 µM.

For the compound `C=C(C)[C@@H](OC(=O)c1ccc(OC)c2ccc(OC)cc12)C(N)=O`, the IC50 with CHO [6] and in the series with CHO [7] was greater than 100 µM in each case.

Take `C=C(C)[C@@H](OC(=O)c1cccc2ccccc12)C(N)=O`: the IC50 with CHO [6] and in the series on CHO [7] was greater than 100 µM in each case.
